Read-outs that look alike come from different tables or passages of the source.
Columns and labels:
[1] = test system: Human Breast Cancer MDA-MB-468 Cell Nude Mice Xenograft; assay: Growth of human breast cancer MDA-MB-468 cell nude mice xenograft; format: in vivo; conditions: abdominal cavity, once every 2 days; for Tumor weights: after 34 days, in g (unit assumed)
Description: Preparing an MDA-MB-468 cell line in a logarithmic growth phase into a 2×10^7/mL cell suspension under sterile conditions, and inoculating 0.1 mL of the cell suspension under the skin of the right axilla of each nude mouse. Measuring the diameter of a nude mice xenograft with a vernier caliper, and randomly dividing the animals into groups after the tumors grew to about 100 mm^3. Dynamically observing an anti-tumor effect of the tested animals using a method of measuring the tumor diameter, wherein the frequency of measurements of the tumor diameter is once every 2 days, and the administration volume is 0.4 mL/20 g. After 34 days, killing the mice and surgically removing and weighing tumor pieces. The formula for calculating tumor volume (TV) is: TV=½×a×b^2, wherein a and b represent the length and the width respectively.

PI3Kα = PI3Kα (Homo sapiens, UniProt P42336); assay: PI3Kα inhibitory activity at the enzyme level (ADP detection by luciferase method); format: biochemical; conditions: for inhibition at 0.1 µM: 100 nM compound, read-out: Inhibition rate on PI3Kα (100 nM)
Description: Experimental method for PI3Kα inhibitory activity: simultaneously adding 40 mM Tris, pH 7.4, 10 mM MgCl2, 0.1 mg/ml BSA, 1 mM DTT, 10 μM ATP, PI3Kα kinase and a kinase substrate into different concentrations of compounds to be sieved to form a 50 μL reaction system, after reaction at 30° C. for 40 minutes, detecting an ADP content in the system through a luciferase method, and then after reaction for 5 minutes, detecting a chemiluminescence signal on an MD-SpectraMax M5 multi-function microplate reader, wherein the intensity of a value of the chemiluminescence signal is in direct proportion to […]. The detected value of the chemiluminescence signal is substituted into the following formula: Enzyme activity percentage (%)=(OD value administration hole-OD value background)/(OD value control hole−OD value background)×100%
(§1) Method for determining IC50 of PARP-1 and PI3Kα: diluting a drug concentration according to a three-fold concentration gradient, and detecting two duplicate wells at each concentration; taking the drug concentration as the abscissa and the percentage of enzyme activity corresponding to each concentration as the ordinate, and calculating to obtain inhibition IC50 values of all tested compounds by using Graphpad Prism5 for nonlinear regression.

PARP-1 = PARP-1 (Homo sapiens, UniProt P09874); assay: PARP-1 inhibitory activity at the enzyme level (histone-coated plate, chemiluminescence); format: biochemical; conditions: for inhibition at 0.01 µM: 10 nM compound, read-out: Inhibition rate on PARP-1 (10 nM)
Description: Experimental method for PARP-1 inhibitory activity: taking out a 96-well plate pre-coated with histones, and adding a following enzyme reaction system and inhibitors of different concentrations into each well, including: 50 μL of a reaction buffer solution (Tris*HCl, pH 8.0), NAD^+, biotin-labeled activated DNA, PARP-1 enzyme, and an inhibitor; after reaction at a room temperature for 1 hour, adding 50 uL of avidin-labeled HRP into each well for reaction for 30 minutes; and then adding 100 μL of an HRP substrate, and detecting a chemiluminescence value on a SpectraMax M instrument. The percentage of enzyme activity is calculated by the following formula: Enzyme activity percentage (%)=(OD value administration hole-OD value background)/(OD value control hole−OD value background)×100%
as §1

[2] = test system: MDA-MB-468 (human breast cancer cells); assay: Tumor cell proliferation inhibition (SRB, 72 hours), MDA-MB-468; format: cell-based
Description: Inoculating HCT116 (human colon cancer cells), HCC1937 (human breast cancer cells), MDA-MB-231 (human breast cancer cells) and MDA-MB-468 (human breast cancer cells) in a logarithmic growth phase with a certain quantity in a 96-well plate (200 μL/well) for culture for 24 hours so as to adhere to walls and then adding drugs. Arranging 3 duplicate wells for each drug concentration, and setting corresponding zero-cut holes and blank controls. After 72 hours of drug action, adding 50% TCA (50 μL/well) into adherent cells, fixing at 4° C. for 1 hour, pouring a fixing solution, washing for 5 times with distilled water, and naturally drying. Adding 100 μL of 4 mg/mL SRB into each well, staining at a room temperature for 15 minutes, discarding, washing for 5 times with 1% glacial acetic acid, and naturally drying. Finally, adding 150 μL of a 10 mM Tris solution into each well, shaking to be uniform, and measuring OD values at a wavelength of 565 nm using a wavelength-adjustable microplate reader (VERSAmax™, Molecular Device).

Sequence of PI3Kα (P42336 whole entry): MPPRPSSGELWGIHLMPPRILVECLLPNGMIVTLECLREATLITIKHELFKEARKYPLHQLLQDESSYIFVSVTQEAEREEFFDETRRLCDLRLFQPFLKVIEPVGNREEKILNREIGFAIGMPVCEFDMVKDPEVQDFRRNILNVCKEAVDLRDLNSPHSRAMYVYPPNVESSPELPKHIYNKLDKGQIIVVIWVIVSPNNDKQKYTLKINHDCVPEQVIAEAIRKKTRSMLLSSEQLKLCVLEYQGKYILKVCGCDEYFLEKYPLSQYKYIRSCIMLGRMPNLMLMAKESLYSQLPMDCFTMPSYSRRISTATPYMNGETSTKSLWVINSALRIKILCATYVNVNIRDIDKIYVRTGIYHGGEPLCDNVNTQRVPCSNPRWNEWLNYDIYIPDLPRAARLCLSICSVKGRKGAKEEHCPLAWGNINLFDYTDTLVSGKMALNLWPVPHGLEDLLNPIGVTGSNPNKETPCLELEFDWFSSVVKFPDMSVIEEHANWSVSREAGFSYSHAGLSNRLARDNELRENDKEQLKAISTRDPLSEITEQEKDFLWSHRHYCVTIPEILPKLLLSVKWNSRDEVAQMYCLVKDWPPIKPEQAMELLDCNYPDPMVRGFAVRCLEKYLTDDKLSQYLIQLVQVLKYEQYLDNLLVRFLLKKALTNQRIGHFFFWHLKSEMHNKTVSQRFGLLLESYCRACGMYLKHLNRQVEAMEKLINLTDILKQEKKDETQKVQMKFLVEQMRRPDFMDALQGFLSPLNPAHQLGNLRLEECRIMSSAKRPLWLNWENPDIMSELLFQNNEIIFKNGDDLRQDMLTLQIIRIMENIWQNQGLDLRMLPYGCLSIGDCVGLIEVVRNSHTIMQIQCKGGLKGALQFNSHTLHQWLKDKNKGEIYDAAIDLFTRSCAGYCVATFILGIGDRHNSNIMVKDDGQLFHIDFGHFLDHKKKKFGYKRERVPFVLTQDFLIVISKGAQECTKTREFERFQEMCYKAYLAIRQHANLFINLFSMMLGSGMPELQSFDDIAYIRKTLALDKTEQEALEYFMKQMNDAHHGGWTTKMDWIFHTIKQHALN
Sequence of PI3Kα (P27986 whole entry partner): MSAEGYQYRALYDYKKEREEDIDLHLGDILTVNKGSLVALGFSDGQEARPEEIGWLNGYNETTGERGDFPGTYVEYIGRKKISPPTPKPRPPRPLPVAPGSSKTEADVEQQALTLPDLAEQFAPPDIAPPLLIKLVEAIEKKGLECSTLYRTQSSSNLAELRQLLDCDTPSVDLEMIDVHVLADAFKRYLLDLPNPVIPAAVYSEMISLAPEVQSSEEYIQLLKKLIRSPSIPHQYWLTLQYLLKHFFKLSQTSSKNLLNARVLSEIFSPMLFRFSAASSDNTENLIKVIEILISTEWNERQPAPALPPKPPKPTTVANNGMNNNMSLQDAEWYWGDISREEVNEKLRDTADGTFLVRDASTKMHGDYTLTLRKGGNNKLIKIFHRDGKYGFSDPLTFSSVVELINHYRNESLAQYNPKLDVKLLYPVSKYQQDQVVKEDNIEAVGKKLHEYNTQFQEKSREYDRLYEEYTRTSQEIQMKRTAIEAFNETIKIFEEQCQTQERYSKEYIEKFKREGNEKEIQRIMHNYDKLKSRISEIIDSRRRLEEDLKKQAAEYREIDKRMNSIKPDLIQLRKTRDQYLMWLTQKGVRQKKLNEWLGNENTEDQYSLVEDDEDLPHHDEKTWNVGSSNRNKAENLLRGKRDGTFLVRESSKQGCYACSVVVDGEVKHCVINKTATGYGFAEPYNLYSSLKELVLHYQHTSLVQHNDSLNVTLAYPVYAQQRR
Sequence of PARP-1 (P09874 whole entry): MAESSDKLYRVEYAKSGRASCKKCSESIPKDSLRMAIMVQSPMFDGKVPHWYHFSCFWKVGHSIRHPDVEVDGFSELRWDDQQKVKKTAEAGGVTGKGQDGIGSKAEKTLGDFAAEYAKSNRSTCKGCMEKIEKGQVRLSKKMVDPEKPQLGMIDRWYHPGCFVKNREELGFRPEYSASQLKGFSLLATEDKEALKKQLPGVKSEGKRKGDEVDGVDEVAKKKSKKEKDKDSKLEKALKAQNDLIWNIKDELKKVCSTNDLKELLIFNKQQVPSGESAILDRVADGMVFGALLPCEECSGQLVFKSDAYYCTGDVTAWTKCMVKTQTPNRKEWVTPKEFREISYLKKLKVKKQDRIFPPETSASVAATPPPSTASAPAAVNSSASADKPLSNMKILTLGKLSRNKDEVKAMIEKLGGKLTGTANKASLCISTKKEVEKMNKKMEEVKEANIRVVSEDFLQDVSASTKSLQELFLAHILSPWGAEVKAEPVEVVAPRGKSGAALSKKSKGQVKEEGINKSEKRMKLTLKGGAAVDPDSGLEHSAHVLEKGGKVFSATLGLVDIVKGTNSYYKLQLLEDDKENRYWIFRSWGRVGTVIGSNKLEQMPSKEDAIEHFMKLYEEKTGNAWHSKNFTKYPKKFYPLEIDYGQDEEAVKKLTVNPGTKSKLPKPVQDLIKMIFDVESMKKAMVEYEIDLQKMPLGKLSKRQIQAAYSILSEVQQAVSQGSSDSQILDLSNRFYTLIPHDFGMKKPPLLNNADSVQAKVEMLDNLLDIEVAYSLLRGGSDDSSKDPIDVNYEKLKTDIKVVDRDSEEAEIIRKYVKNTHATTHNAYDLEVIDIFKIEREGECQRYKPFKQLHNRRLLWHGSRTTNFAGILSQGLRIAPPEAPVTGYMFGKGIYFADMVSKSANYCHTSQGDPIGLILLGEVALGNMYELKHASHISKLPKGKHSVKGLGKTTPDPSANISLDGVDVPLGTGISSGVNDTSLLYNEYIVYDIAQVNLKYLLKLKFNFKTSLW

Compound: Nc1cc(C(F)(F)F)c(-c2cc(N3CCOCC3)nc(N3CCOCC3)n2)cn1 [BKM120, reference compound]
- Tumor Volumes ([1]; 0 day, 27.5 mg/kg): 94.67 mm^3
- Tumor Volumes ([1]; 6 days, 27.5 mg/kg): 203.83 mm^3
- Tumor Volumes ([1]; 12 days, 27.5 mg/kg): 294.34 mm^3
- Tumor Volumes ([1]; 18 days, 27.5 mg/kg): 388.09 mm^3
- Tumor Volumes ([1]; 24 days, 27.5 mg/kg): 525.13 mm^3
- Tumor Volumes ([1]; 30 days, 27.5 mg/kg): 677.51 mm^3
- Tumor Volumes ([1]; 34 days, 27.5 mg/kg): 777.59 mm^3
- Tumor weights ([1]; 27.5 mg/kg): 1.36

Compound: Nc1ccc(-c2nc3c(c(N4CCOCC4)n2)CCN(C(=O)c2cc(Cc4n[nH]c(=O)c5ccccc45)ccc2F)C3)c(F)c1 [I-6, 4-(3-(2-(4-amino-2-fluorophenyl)-4-morpholinyl-5,6,7,8-tetrahydropyrido[3,4-d]pyrimidin-7-formyl)-4-fluorobenzyl)phthalazin-1(2H)-one]
- melting point: 204 to 206 °C
- inhibition at 0.1 µM (PI3Kα): 24%
- inhibition at 0.01 µM (PARP-1): 89%

Compound: O=C(CN1CCOCC1)Nc1cc(C(F)(F)F)c(-c2nc3c(c(N4CCOCC4)n2)CCN(C(=O)c2cc(Cc4n[nH]c(=O)c5ccccc45)ccc2F)C3)cn1 [I-4, N-(5-(7-(2-fluoro-5-((4-oxo-3,4-dihydrophthalazin-1-yl)methyl)benzoyl)-4-morpholinyl-5,6,7,8-tetrahydropyrido[3,4-cl]pyrimidin-2-yl)-4-(trifluoromethyl)pyridin-2-yl)-2-morpholinyl acetamide]
- inhibition at 0.1 µM (PI3Kα): 53%
- inhibition at 0.01 µM (PARP-1): 67%

Compound: O=C(c1cc(Cc2n[nH]c(=O)c3ccccc23)ccc1F)N1CCc2c(nc(-c3cccc4[nH]ccc34)nc2N2CCOCC2)C1 [I-10, 4-(3-(2-(1H-indole-4-yl)-4-morpholinyl-5,6,7,8-tetrahydropyrido[3,4-d]pyrimidin-7-formyl)-4-fluorobenzyl)phthalazin-1(2H)-one]
- inhibition at 0.1 µM (PI3Kα): 15%
- inhibition at 0.01 µM (PARP-1): 88%

Compound: O=C(c1cc(Cc2n[nH]c(=O)c3ccccc23)ccc1F)N1CCN(C(=O)C2CC2)CC1 [Olaparib, reference compound]
- Tumor Volumes ([1]; 0 day, 50 mg/kg (I-1: medium)): 96.41 mm^3
- Tumor Volumes ([1]; 6 days, 50 mg/kg (I-1: medium)): 222.00 mm^3
- Tumor Volumes ([1]; 12 days, 50 mg/kg (I-1: medium)): 324.20 mm^3
- Tumor Volumes ([1]; 18 days, 50 mg/kg (I-1: medium)): 422.84 mm^3
- Tumor Volumes ([1]; 24 days, 50 mg/kg (I-1: medium)): 566.86 mm^3
- Tumor Volumes ([1]; 30 days, 50 mg/kg (I-1: medium)): 718.76 mm^3
- Tumor Volumes ([1]; 34 days, 50 mg/kg (I-1: medium)): 834.87 mm^3
- Tumor weights ([1]; 50 mg/kg (I-1: medium)): 1.55

Compound: Nc1cc(-c2nc3c(c(N4CCOCC4)n2)CCN(C(=O)c2cc(Cc4n[nH]c(=O)c5ccccc45)ccc2F)C3)ccc1F [I-7, 4-(3-(2-(3-amino-4-fluorophenyl)-4-morpholinyl-5,6,7,8-tetrahydropyrido[3,4-d]pyrimidin-7-formyl)-4-fluorobenzyl)phthalazin-1(2H)-one]
- melting point: 236 to 239 °C
- inhibition at 0.1 µM (PI3Kα): 27%
- inhibition at 0.01 µM (PARP-1): 83%

Compound: O=C(c1cc(Cc2n[nH]c(=O)c3ccccc23)ccc1F)N1CCc2c(nc(-c3ccc4[nH]ccc4c3)nc2N2CCOCC2)C1 [I-9, 4-(3-(2-(1H-indole-5-yl)-4-morpholinyl-5,6,7,8-tetrahydropyrido[3,4-d]pyrimidin-7-formyl)-4-fluorobenzyl)phthalazin-1(2H)-one]
- melting point: 238 to 240 °C
- inhibition at 0.1 µM (PI3Kα): 30%
- inhibition at 0.01 µM (PARP-1): 85%

Compound: Nc1ncc(-c2nc3c(c(N4CCOCC4)n2)CCN(C(=O)c2cc(Cc4n[nH]c(=O)c5ccccc45)ccc2F)C3)cc1C(F)(F)F [I-5, 4-(3-(2-(6-amino-5-(trifluoromethyl)pyridin-3-yl)-4-morpholinyl-5,6,7,8-tetrahydropyrido [3,4-d]pyrimidin-7-formyl)-4-fluorobenzyl)phthalazin-1(2H)-one]
- melting point: 256 to 258 °C
- inhibition at 0.1 µM (PI3Kα): 17%
- inhibition at 0.01 µM (PARP-1): 81%

Compound: C[C@H]1COCCN1c1nc(-c2cnc(N)nc2)nc2c1CCN(C(=O)c1cc(Cc3n[nH]c(=O)c4ccccc34)ccc1F)C2 [I-11, (S)-4-(3-(2-(2-aminopyrimidin-5-yl)-4-(3-methylmorpholinyl)-5,6,7,8-tetrahydropyrido [3,4-d]pyrimidin-7-formyl)-4-fluorobenzyl)phthalazin-1(2H)-one]
- melting point: 214 to 216 °C
- IC50 (PI3Kα): 29.8 nM
- inhibition at 0.1 µM (PI3Kα): 67%
- IC50 (PARP-1): 0.376 nM
- inhibition at 0.01 µM (PARP-1): 94%
- IC50 [2]: 738 nM
- IC50 ([2]; Homo sapiens, MDA-MB-468, 72 h): < 1000 nM

Source: patent publication US11572359B2, “PARP/PI3K double-target inhibit containing pyridopyrimidine structure” (CHINA PHARMACEUTICAL UNIVERSITY, priority 2017, dated 2023)
